pKi: −log10 of the molar value.
Experiments:
[1] = target: Serine/threonine-protein kinase pim-1 (Homo sapiens, UniProt P11309); assay: Inhibition of Pim1 after 1 hr using biotinylated AL1peptide as substrate
[2] = target: Glycogen synthase kinase-3 beta (Homo sapiens, UniProt P49841)
Description: Inhibition of GSK3-beta after 1 hr

[3] = target: Rho-associated protein kinase 2 (Homo sapiens, UniProt O75116); assay: Inhibition of Rock2 after 1 hr using biotinylated longS peptide as substrate
[4] = target: Serine/threonine-protein kinase PAK 4 (Homo sapiens, UniProt O96013); assay: Inhibition of Pak4 after 1 hr using biotinylated L15 peptide as substrate
Serine/threonine-protein kinase PAK 4, sequence (O96013 whole entry): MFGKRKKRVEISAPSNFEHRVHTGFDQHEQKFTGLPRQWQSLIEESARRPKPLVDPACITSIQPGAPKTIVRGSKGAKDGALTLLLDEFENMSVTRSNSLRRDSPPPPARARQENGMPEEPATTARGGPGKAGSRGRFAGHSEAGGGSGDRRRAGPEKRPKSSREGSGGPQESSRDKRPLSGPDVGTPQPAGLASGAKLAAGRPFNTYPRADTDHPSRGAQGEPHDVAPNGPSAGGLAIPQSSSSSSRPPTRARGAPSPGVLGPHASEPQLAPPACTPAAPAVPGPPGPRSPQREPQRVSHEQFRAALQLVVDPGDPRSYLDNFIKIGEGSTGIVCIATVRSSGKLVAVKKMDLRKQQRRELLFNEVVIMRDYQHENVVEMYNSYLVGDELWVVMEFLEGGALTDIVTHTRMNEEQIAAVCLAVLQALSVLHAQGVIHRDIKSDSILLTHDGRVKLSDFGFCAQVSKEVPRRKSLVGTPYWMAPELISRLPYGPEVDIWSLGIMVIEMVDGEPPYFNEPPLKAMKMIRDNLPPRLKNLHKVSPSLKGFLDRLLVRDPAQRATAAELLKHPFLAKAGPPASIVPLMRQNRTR

[5] = target: Vascular endothelial growth factor receptor 2 (Homo sapiens, UniProt P35968); assay: Inhibition of KDR after 1 hr
Vascular endothelial growth factor receptor 2, sequence (P35968 whole entry): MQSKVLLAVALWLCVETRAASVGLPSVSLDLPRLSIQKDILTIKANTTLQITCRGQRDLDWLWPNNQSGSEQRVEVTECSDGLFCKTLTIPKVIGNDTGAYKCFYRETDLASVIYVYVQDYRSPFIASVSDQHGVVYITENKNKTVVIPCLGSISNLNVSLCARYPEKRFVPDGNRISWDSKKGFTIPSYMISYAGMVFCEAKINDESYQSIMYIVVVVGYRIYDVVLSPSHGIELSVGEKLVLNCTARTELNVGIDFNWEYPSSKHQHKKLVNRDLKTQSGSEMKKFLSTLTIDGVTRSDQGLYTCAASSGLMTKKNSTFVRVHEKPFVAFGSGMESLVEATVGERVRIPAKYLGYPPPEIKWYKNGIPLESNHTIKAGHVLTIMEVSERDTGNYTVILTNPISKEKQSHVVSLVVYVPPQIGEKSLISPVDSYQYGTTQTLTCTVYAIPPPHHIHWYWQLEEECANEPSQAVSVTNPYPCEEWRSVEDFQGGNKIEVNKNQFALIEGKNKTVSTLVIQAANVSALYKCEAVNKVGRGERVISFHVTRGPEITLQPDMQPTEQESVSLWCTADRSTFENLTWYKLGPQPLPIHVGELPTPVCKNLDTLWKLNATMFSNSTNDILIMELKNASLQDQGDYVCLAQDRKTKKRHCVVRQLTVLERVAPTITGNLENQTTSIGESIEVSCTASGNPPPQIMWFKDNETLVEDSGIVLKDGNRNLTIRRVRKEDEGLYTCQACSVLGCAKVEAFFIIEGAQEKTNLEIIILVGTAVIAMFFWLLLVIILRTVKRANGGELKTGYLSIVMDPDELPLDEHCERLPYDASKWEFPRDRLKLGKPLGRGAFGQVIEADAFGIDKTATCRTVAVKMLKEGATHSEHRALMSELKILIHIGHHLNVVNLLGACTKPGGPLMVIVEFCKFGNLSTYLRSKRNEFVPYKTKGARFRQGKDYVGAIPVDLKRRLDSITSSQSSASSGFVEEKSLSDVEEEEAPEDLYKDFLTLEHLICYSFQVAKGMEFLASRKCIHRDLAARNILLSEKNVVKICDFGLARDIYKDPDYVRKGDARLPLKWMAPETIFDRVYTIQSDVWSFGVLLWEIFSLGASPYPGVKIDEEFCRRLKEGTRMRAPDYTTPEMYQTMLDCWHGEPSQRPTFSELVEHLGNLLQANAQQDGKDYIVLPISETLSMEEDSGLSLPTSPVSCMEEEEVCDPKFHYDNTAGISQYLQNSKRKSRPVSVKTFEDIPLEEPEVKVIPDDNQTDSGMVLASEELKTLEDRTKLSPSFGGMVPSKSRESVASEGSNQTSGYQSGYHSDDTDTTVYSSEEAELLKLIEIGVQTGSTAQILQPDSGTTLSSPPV

[6] = target: Epidermal growth factor receptor (Homo sapiens, UniProt P00533)
Epidermal growth factor receptor, sequence (P00533 whole entry): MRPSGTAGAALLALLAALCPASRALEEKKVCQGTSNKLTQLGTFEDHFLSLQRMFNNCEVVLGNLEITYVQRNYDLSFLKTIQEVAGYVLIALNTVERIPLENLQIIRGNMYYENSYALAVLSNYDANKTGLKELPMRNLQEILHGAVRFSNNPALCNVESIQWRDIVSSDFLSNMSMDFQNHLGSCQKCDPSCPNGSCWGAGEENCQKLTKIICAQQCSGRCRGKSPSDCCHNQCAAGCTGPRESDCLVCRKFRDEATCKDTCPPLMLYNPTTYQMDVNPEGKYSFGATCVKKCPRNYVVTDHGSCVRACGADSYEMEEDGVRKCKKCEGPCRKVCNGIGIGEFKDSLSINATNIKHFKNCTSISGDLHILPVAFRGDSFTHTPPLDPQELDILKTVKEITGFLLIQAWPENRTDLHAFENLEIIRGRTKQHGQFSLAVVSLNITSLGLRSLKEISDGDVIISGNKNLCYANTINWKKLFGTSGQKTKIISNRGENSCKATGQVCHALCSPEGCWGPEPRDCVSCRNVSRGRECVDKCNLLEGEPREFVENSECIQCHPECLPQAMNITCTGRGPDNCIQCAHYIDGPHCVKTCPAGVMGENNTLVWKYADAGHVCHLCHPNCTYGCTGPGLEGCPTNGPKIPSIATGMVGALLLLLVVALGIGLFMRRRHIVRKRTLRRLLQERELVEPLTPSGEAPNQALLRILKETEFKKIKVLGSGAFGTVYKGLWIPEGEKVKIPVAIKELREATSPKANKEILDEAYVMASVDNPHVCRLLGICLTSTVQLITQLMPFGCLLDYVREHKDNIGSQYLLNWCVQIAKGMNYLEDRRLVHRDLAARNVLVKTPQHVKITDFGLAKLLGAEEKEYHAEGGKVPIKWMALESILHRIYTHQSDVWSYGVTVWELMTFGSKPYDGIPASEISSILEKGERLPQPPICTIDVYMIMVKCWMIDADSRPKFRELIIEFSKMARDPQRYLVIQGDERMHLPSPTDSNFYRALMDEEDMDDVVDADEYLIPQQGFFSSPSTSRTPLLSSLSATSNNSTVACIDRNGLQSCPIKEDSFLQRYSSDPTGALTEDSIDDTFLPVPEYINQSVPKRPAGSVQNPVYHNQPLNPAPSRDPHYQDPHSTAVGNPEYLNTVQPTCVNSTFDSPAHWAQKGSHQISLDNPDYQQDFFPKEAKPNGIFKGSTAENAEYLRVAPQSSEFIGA
Description: Inhibition of EGFR after 1 hr

[7] = target: Tyrosine-protein kinase JAK2 (Homo sapiens, UniProt O60674); assay: Inhibition of JAK2 after 1 hr using biotinylated PDKtide as substrate
Tyrosine-protein kinase JAK2, sequence (O60674 whole entry): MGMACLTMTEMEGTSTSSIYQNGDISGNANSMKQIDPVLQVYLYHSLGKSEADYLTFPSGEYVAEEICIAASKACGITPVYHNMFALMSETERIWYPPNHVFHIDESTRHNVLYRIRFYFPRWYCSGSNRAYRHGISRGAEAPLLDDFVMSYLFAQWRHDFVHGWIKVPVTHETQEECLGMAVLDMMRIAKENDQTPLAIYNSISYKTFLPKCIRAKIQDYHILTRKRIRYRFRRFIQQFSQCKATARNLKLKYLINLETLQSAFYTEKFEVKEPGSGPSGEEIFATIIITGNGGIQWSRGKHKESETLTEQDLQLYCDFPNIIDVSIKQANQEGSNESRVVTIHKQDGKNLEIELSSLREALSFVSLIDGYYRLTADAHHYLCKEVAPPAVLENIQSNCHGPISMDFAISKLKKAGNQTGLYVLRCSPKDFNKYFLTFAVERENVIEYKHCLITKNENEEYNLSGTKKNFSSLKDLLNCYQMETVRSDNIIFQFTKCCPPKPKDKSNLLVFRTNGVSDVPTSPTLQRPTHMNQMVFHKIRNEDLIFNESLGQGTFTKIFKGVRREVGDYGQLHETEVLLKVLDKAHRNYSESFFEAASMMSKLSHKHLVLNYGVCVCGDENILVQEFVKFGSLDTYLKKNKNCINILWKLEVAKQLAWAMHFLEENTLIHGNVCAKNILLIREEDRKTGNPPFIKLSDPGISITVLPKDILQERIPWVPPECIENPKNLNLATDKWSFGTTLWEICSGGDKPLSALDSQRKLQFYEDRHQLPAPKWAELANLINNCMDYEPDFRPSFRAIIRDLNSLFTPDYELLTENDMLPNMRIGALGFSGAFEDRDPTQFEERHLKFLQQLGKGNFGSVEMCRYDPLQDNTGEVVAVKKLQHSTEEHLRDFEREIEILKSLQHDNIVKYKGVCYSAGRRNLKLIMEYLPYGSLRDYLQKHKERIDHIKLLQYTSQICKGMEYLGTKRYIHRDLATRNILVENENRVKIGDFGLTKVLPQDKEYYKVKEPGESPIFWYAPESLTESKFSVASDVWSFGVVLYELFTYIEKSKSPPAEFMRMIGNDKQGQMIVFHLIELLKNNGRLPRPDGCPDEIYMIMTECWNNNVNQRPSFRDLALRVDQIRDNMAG

Serine/threonine-protein kinase pim-1, sequence (P11309 whole entry): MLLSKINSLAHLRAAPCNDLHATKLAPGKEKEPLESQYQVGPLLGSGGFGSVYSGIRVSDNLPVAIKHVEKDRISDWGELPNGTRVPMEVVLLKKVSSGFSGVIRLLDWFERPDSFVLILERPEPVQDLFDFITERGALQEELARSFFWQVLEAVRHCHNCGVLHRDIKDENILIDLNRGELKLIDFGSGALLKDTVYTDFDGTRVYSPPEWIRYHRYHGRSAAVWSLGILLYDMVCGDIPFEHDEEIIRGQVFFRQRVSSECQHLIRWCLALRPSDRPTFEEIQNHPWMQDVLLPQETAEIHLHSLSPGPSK
Glycogen synthase kinase-3 beta, sequence (P49841 whole entry): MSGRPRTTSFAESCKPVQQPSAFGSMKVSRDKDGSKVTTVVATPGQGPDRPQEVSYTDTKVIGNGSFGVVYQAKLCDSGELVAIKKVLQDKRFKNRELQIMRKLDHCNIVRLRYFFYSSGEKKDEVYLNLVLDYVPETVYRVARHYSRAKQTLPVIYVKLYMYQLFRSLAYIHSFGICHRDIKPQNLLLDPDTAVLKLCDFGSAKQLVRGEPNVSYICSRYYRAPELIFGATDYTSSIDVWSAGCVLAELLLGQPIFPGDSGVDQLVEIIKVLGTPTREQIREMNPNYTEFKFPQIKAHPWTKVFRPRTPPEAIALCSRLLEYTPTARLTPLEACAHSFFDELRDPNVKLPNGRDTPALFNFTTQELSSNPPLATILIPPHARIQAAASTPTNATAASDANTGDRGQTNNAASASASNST

| Compound | pKi [1] | pKi [2] | pKi [3] | pKi [4] | pKi [5] | pKi [6] | pKi [7] |
| --- | --- | --- | --- | --- | --- | --- | --- |
| CNC(=O)c1cc(-c2ccc3[nH]ncc3c2)on1 | 5.43 | 5.37 | 6.40 | < 5.43 | < 5.05 |  |  |
| CCCc1cn(-c2ccc3[nH]ncc3c2)nn1 | 5.08 | 5.69 | 6.97 | < 5.43 | < 5.05 | < 5.74 | 6.12 |
| COCc1cn(-c2ccc3[nH]ncc3c2)nn1 | < 5.07 | < 5.26 | 6.20 | < 5.43 | < 5.05 | < 5.74 | < 5.84 |
| OCCCc1cn(-c2ccc3[nH]ncc3c2)nn1 | < 5.07 | 5.28 | 6.64 | < 5.43 | < 5.05 | < 5.74 | 5.84 |
| c1cc2[nH]ncc2cc1-n1cc(C2CC2)nn1 | < 5.07 | 5.46 | 6.45 | < 5.43 | < 5.05 | < 5.74 | 5.84 |
| c1cc2[nH]ncc2cc1-n1cc(C2CCCC2)nn1 | < 5.07 | 5.89 | 7.36 | < 5.43 | < 5.05 | < 5.74 | 6.10 |
| c1cc2[nH]ncc2cc1-n1cc(CC2CCCCC2)nn1 | < 5.07 | 6.05 | 7.00 | < 5.43 | < 5.05 | < 5.74 | 6.55 |
| c1ccc(Cc2cn(-c3ccc4[nH]ncc4c3)nn2)cc1 |  | 6.27 |  |  |  |  |  |
| CCCc1cc(-c2ccc3[nH]ncc3c2)on1 |  | 5.60 |  |  |  |  |  |
| c1cc2[nH]ncc2cc1-c1cc(CN2CCCCC2)no1 |  | 5.42 |  |  |  |  | < 5.84 |

Continued by rising pKi [2], values first:

| pKi [1] | pKi [2] | pKi [3] | pKi [4] | pKi [5] | pKi [6] | pKi [7] | Compound |
| --- | --- | --- | --- | --- | --- | --- | --- |
| < 5.07 | 6.28 | 7.21 | < 5.43 | < 5.05 | < 5.74 | 6.19 | c1ccc(CCCc2cn(-c3ccc4[nH]ncc4c3)nn2)cc1 |
| 5.29 | 6.35 | 7.80 | 5.45 | 5.48 |  | 7.80 | Nc1n[nH]c2ccc(-c3cc(Cc4ccccc4)no3)cc12 |
| 5.65 | 6.35 | 6.68 | 4.16 | 5.45 |  | 5.84 | c1cc2n[nH]cc2cc1-c1c[nH]nn1 |
| < 5.07 | 6.35 | 7.72 | < 5.43 | < 5.05 | < 5.74 | 6.05 | c1ccc(CCc2cn(-c3ccc4[nH]ncc4c3)nn2)cc1 |
| 4.42 | 6.71 | 7.17 |  | 5.57 |  |  | Clc1ccc(Cn2cc(-c3ccc4[nH]ncc4c3)nn2)cc1 |
| 4.99 | 7.04 | 6.55 | 4.88 | < 6.04 |  |  | Fc1ccccc1Cn1cc(-c2ccc3[nH]ncc3c2)nn1 |
| 3.78 | 7.15 | 6.55 |  |  |  |  | Fc1ccc(Cn2cc(-c3ccc4[nH]ncc4c3)nn2)cc1 |
|  | 7.15 | 6.43 |  | < 6.04 |  |  | Cc1cccc(Cn2cc(-c3ccc4[nH]ncc4c3)nn2)c1 |
| 4.69 | 7.32 | 7.82 | 4.17 |  |  |  | Clc1cccc(Cn2cc(-c3ccc4[nH]ncc4c3)nn2)c1Cl |
| 5.38 | 7.35 | 7.01 |  |  |  | < 5.84 | Clc1ccccc1Cn1cc(-c2ccc3[nH]ncc3c2)nn1 |
| 4.38 | 7.55 | 7.39 |  | < 6.04 |  |  | Clc1cc(Cl)cc(Cn2cc(-c3ccc4[nH]ncc4c3)nn2)c1 |
| 4.92 | 7.59 | 6.74 |  |  |  |  | Fc1cccc(Cn2cc(-c3ccc4[nH]ncc4c3)nn2)c1 |
|  | 7.64 | 7.41 |  | 4.88 |  | 5.84 | Clc1cccc(Cn2cc(-c3ccc4[nH]ncc4c3)nn2)c1 |
| 4.44 | 7.80 | 7.74 |  | 3.90 |  |  | Clc1ccc(Cl)c(Cn2cc(-c3ccc4[nH]ncc4c3)nn2)c1 |

Source: ChEMBL document CHEMBL1681644, “Scaffold oriented synthesis. Part 3: design, synthesis and biological evaluation of novel 5-substituted indazoles as potent and selective kinase inhibitors employing [2+3] cycloadditions” (Bioorg Med Chem Lett, 2011)
